Experimental data from patent US6764682B1, “Adjuvant compositions containing more than one adjuvant” (priority 1994, dated 2004).

Assays:
Format in all cases: in vivo
[1] = test system: peptide-specific IgG antibodies; test: Guinea pig antibody responses to synthetic peptides formulated with different adjuvants (peptide-specific ELISA); conditions: mean titer of three guinea pigs, three injections
CLTB-56 = test: Guinea pig antibody response to CLTB-36 in different adjuvants, ELISA titer against CLTB-56; conditions: guinea pigs (n = 3) immunized with 20 μg CLTB-36 in the named adjuvant; boosters at 2, 4 and 6 weeks
CLTB-36 = test: Guinea pig antibody response to CLTB-36 in different adjuvants, ELISA titer against CLTB-36; conditions: guinea pigs (n = 3) immunized with 20 μg CLTB-36 in the named adjuvant; boosters at 2, 4 and 6 weeks
[2] = adjuvant BAY R1005, 100 μg peptide per dose (CLTB-36 20 μg)
[3] = adjuvant CFA, 100 μg peptide per dose (CLTB-36 20 μg)
[4] = adjuvant OTH, 100 μg peptide per dose (CLTB-36 20 μg)
[5] = adjuvant TPC, 100 μg peptide per dose (CLTB-36 20 μg)
[6] = adjuvant alum, 100 μg peptide per dose (CLTB-36 20 μg)
[7] = peptide in PBS (no adjuvant), 100 μg peptide per dose (CLTB-36 20 μg)
[8] = Table 3, adjuvant BAY R1005 + alum, 100 μg peptide per dose

Compound	Peptide-Specific Antibody Titre [1, 2]	Peptide-Specific Antibody Titre [1, 3]	Peptide-Specific Antibody Titre [1, 4]	Peptide-Specific Antibody Titre [1, 5]	Peptide-Specific Antibody Titre [1, 6]	Peptide-Specific Antibody Titre [1, 7]	Peptide-Specific Antibody Titre [1, 8]	Peptide-Specific Antibody Titre ([1]; Table 3, adjuvant BAY R1005, 100 μg peptide per dose)	Peptide-Specific Antibody Titre ([1]; Table 3, adjuvant alum, 100 μg peptide per dose)	Average titers against CLTB-56 (CLTB-56)	Average titers against CLTB-36 (CLTB-36)
GPKEPFRDYVDRFYKNRKRIHIGPGRAFYTTKN [CLTB-36]	72,800	256,000	6,400	3,200	10,000	400					
PQPGPQPPQPPQPQPEAPAPQPPC [69K-P1]	32,500	10,000		1,600	32,500	800					
PIVNKQSCSISNIETVIEFQQ [RSV-FND2]	10,000	12,800	6,400	3,200	7,800	400	25,600	10,000	7,800		
TKQRQNKPPSKPNNDFHFEVFNFVPC [RSV-G1]	31,500	315,000		6,400	128,000	1,600					
CSNNPTCWAICKRIPNKKPGKKT [RSV-G2]	3,200	128,000		1,600	31,500	1,280					
CC(=O)O.CCCCCCCCCCCCCCCCCCN(C(=O)CCCCCCCCCCC)[C@@H]1O[C@H](CO)[C@@H](O)[C@H](O)[C@H]1NC(=O)[C@@H](N)CC(C)C [BAY R1005, N-(2-deoxy-2-L-leucylamino-β-D-glucopyranosyl)-N-octadecyldodecanamide acetate]										4,333	62,500
PDPGDLVEYIMNYTGNQQSRWGLGSPNCHGPDWASPVCQRHSP [RV-EP27]		128,000	25,600		12,800	400					
QSYSIMSIIKEEVLAYAVQLPLPLYGVIDTP [RSV-F]	3,850	6,400	3,200	1,600	32,000	500	128,000				
NQITSALSTQQEFRDLKKYLPSKDKSVVSLQDRAC [HIBP1-5E]	32,500	312,500		1,600	8,333	200					
IKEIDESESEDYAKEGFRAP [PSP-AA]		12,500			1,600	200					
GPKEPFRDYVDRFYKNTRKRIRIQRGGRAFVTIGK [CLTB-72]	45,800	312,500	6,400	3,200	37,500	2,333					
GPKEPFRDYVDRFYKNTRQSTPIGLGQALYTTRG [CLTB-76]	45,833	625,000	6,400	3,200	9,166	1,833					
TVGKKTYQVEACCSNLSYVKFGM [TBP2-3]	32,500	12,500			43,333	400					
